Experimental data as given in patent US5798373A, “Tri-substituted phenyl derivatives useful as PDE IV inhibitors” (Celltech Therapeutics, Limited, priority 1995, dated 1998).
Counter-ions that a name gives are not always drawn.

How the values were obtained:
[1] = target: T1, Recombinant Human PDE IVA (Homo sapiens, UniProt P27815); assay: Isolated recombinant human PDE IVA enzyme inhibition; type: biochemical; details: 0.1 μM [^3 H]-cAMP, pH 7.5, 30° C.
T1 construct: made in house; host or cells: yeast (inducible vector)
Description: Isolated Recombinant Human PDE IVA Enzyme
The enzymes were purified to isoenzyme homogeneity using standard chromatographic techniques.
Phosphodiesterase activity was assayed as follows. The reaction was conducted in 150 μl of standard mixture containing (final concentrations): 50 mM 2-[[tris(hydroxymethyl)methyl]amino]-1-ethanesulphonic acid (TES) --NaOH buffer (pH 7.5), 10 mM MgCl2, 0.1 μM [^3 H]-cAMP and vehicle or various concentrations of the test compounds. The reaction was initiated by addition of enzyme and conducted at 30° C. for between 5 to 30 min. The reaction was terminated by addition of 50 μl 2% trifluoroacetic acid containing [^14 C]-5'AMP for determining recovery of the product. An aliquot of the sample was then applied to a column of neutral alumina and the [^3 H]-cAMP eluted with 10 ml 0.1 TES-NaOH buffer (pH8). The [^3 H]-5'-AMP product was eluted with 2 ml 2M NaOH into a scintillation vial containing 10 ml of scintillation cocktail. Recovery of [^3 H]-5'AMP was determined using the [^14 C]-5'AMP and all assays were conducted in the linear range of the reaction. Results were expressed as IC50 values.

[2] = Rat hepatocyte metabolism (metabolic stability); type: in vitro ADME; details: rat hepatocytes, after 3 h, mass spectroscopy; read-out: percentage of compound remaining
Description: (§1) 2. Rat Hepatocyte Metabolism
(§2) The quantity of compound remaining after a fixed period of time was then determined using mass spectroscopy.
(§3) Thus in one such test the compound of Example 1 was compared with a related compound particularly described in International Patent Specification No. WO94/14742 in which the 4-fluorobenzylurea group is replaced by a hydrogen atom (i.e. (L^1)n Ar' above is a hydrogen atom). After 3 h the percentage of each compound remaining was: […]

rat hepatocytes = assay: Rat hepatocyte metabolism (metabolic stability); type: in vitro ADME; details: after 3 h
Description: as §1, §2, §3

T1 sequence (P27815 whole entry): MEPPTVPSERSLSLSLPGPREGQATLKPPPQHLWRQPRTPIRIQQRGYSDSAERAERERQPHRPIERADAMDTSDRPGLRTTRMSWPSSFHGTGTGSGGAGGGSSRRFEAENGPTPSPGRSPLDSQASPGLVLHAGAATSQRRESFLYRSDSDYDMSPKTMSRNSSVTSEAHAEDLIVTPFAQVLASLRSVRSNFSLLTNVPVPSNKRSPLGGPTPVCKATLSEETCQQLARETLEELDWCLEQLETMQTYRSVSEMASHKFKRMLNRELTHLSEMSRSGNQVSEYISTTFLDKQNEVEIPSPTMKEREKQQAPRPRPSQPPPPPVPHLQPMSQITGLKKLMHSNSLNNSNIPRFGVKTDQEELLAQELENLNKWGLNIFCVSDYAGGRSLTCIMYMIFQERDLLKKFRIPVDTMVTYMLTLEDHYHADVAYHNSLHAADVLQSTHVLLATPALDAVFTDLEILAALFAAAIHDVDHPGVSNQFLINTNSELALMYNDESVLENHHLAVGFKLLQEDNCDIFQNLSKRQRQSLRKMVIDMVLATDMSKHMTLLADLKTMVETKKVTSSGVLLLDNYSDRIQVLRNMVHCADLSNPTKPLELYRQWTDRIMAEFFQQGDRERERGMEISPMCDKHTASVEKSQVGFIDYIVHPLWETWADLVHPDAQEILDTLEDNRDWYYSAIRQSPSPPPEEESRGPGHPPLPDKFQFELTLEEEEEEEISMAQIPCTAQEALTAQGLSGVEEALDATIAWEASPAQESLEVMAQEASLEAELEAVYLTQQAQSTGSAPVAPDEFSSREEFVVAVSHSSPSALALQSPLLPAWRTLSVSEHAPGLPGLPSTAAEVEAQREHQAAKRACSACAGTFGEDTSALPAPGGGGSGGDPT

| SMILES | IC50 [1] [nM] | remaining at 3 h [2] [%] | percentage of compound remaining (rat hepatocytes; mass spectroscopy, listed as compound of the invention, 180 min) | extent of metabolism (in words) (rat hepatocytes) |
| --- | --- | --- | --- | --- |
| COc1ccc([C@H](Cc2ccncc2)c2ccc(NC(=O)NCc3ccc(F)cc3)cc2)cc1OC1CCCC1 [Example 1, (R)-N-[4-{1-(3-cyclopentyloxy-4-methoxyphenyl)-2-(4-pyridyl)ethyl}-phenyl]-N'-(4-fluorobenzyl) urea] | 23 | > 80 | over 80% | – |
| COc1ccc([C@H](Cc2ccncc2)c2ccc(NS(=O)(=O)Cc3ccccc3)cc2)cc1OC1CCCC1 [Example 2, (R)-4-{2-(3-cyclopentyloxy-4-methoxyphenyl)-2-[4-(benzylsulphonylamino)phenyl]ethyl}pyridine hydrochloride] | 7.5 | – | – | – |
| COc1ccc([C@H](Cc2ccncc2)c2ccccc2)cc1OC1CCCC1 [WO94/14732 comparison compound, reference compound] | – | 6 | – | extensively metabolised |
